Common to all, as to assay: relative viability (nuclei count vs DMSO), 5 days (fraction); higher = more cells survive
Compound in the assay “Vandetanib + Luminespib”: COc1cc2/c(=N/c3ccc(Br)cc3F)nc[nH]c2cc1OCC1CCN(C)CC1 [Vandetanib] + CCNC(=O)c1noc(-c2cc(C(C)C)c(O)cc2O)c1-c1ccc(CN2CCOCC2)cc1 [Luminespib] (partner 0.01 µM)
In a few lines: (§1)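 A single step with final 0.05% Triton X-100, 1% formaldehyde and 1 ug/ml Hoechst fixed the cells and stained nuclei 5 days after treatment. Lung cancer cell lines in 1536-well plates had been treated by pin tool the day after seeding with one drug alone or a fixed anchor-drug dose plus five library-drug doses (not always all listed) in √10 steps, and nuclei were counted on 4× images. Relative viability is the ratio of nuclei in treated wells to nuclei in vehicle wells, taken as the median of duplicate plates.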

Compound in the assay “Vandetanib + AZD7762”: COc1cc2/c(=N/c3ccc(Br)cc3F)nc[nH]c2cc1OCC1CCN(C)CC1 [Vandetanib] + NC(=O)Nc1cc(-c2cccc(F)c2)sc1C(=O)N[C@H]1CCCNC1 [AZD7762] (partner 0.2 µM)
In short, it runs like this: as §1

Compound in the assay “NVP-TAE684 + Olaparib”: COc1cc(N2CCC(N3CCN(C)CC3)CC2)ccc1Nc1ncc(Cl)c(Nc2ccccc2S(=O)(=O)C(C)C)n1 [NVP-TAE684] + O=C(c1cc(Cc2n[nH]c(=O)c3ccccc23)ccc1F)N1CCN(C(=O)C2CC2)CC1 [Olaparib] (partner 8 µM)
In a few lines:
as §1

Compound in the assay “CUDC-101 + Decitabine”: C#Cc1cccc(Nc2ncnc3cc(OC)c(OCCCCCCC(=O)NO)cc23)c1 [CUDC-101] + Nc1ncn([C@H]2C[C@H](O)[C@@H](CO)O2)c(=O)n1 [Decitabine] (partner 2 µM)
In short, it runs like this: as §1

For NCI-H522, the relative viability in the assay with Vandetanib + Luminespib (first compound 0.02 µM) stood at 1.3; with Vandetanib + Luminespib (first compound 0.06325 µM), 1.17; with Vandetanib + Luminespib (first compound 0.2 µM), 1.11; with Vandetanib + Luminespib (first compound 0.6325 µM) it was 1.18; in the assay with Vandetanib + Luminespib (first compound 2 µM), 0.96; with Vandetanib + AZD7762 (first compound 0.02 µM), 0.753. Also, the relative viability with Vandetanib + AZD7762 (first compound 0.06325 µM) worked out at 0.876; with Vandetanib + AZD7762 (first compound 0.2 µM) it was 0.738; with Vandetanib + AZD7762 (first compound 0.6325 µM) it was 0.92; with Vandetanib + AZD7762 (first compound 2 µM), 0.699; with NVP-TAE684 + Olaparib (first compound 0.2 µM), 0.642; in the assay with NVP-TAE684 + Olaparib (first compound 0.6325 µM), 0.664. For the same cell line, the relative viability with NVP-TAE684 + Olaparib (first compound 2 µM) turned out to be 0.662; in the assay with CUDC-101 + Decitabine (first compound 0.01 µM), 0.58; with CUDC-101 + Decitabine (first compound 0.03162 µM), 0.622; in the assay with CUDC-101 + Decitabine (first compound 0.1 µM) it was 0.761; with CUDC-101 + Decitabine (first compound 0.3162 µM), 0.616; with CUDC-101 + Decitabine (first compound 1 µM), 0.677.

As for RERF-LC-KJ, the relative viability in the assay with Vandetanib + Luminespib (first compound 0.02 µM) amounted to 1.1; with Vandetanib + Luminespib (first compound 0.06325 µM) it was 1.21; with Vandetanib + Luminespib (first compound 0.2 µM), 1.29; with Vandetanib + Luminespib (first compound 0.6325 µM) it was 1.14; with Vandetanib + Luminespib (first compound 2 µM) it was 1.12; with Vandetanib + AZD7762 (first compound 0.06325 µM), 0.985. Moreover, the relative viability in the assay with Vandetanib + AZD7762 (first compound 0.2 µM) was determined as 1.06; with Vandetanib + AZD7762 (first compound 0.6325 µM) it was 1.04; with Vandetanib + AZD7762 (first compound 2 µM), 0.766; with NVP-TAE684 + Olaparib (first compound 0.2 µM), 1.1; with NVP-TAE684 + Olaparib (first compound 0.6325 µM), 0.758; in the assay with NVP-TAE684 + Olaparib (first compound 2 µM), 0.547. The relative viability with CUDC-101 + Decitabine (first compound 0.01 µM) is 0.648; with CUDC-101 + Decitabine (first compound 0.03162 µM), 0.724; in the assay with CUDC-101 + Decitabine (first compound 0.1 µM), 0.711; with CUDC-101 + Decitabine (first compound 0.3162 µM), 0.588; with CUDC-101 + Decitabine (first compound 1 µM) it was 0.469.

With NCI-H1623, the relative viability with Vandetanib + Luminespib (first compound 0.02 µM) was found to be 0.504; with Vandetanib + Luminespib (first compound 0.06325 µM) it was 0.577; in the assay with Vandetanib + Luminespib (first compound 0.2 µM), 0.581; with Vandetanib + Luminespib (first compound 0.6325 µM), 0.521; in the assay with Vandetanib + Luminespib (first compound 2 µM), 0.436.

On to IA-LM, for which the relative viability with NVP-TAE684 + Olaparib (first compound 0.2 µM) is 0.745; in the assay with NVP-TAE684 + Olaparib (first compound 0.6325 µM) it was 0.799; with NVP-TAE684 + Olaparib (first compound 2 µM), 0.638.

In the case of NCI-H1299, the relative viability with NVP-TAE684 + Olaparib (first compound 0.2 µM) is 0.979; in the assay with NVP-TAE684 + Olaparib (first compound 0.6325 µM), 1.02; in the assay with NVP-TAE684 + Olaparib (first compound 2 µM), 0.682.

For HCC-366, the relative viability with Vandetanib + AZD7762 (first compound 0.02 µM) is 0.205; with Vandetanib + AZD7762 (first compound 0.06325 µM), 0.317; with Vandetanib + AZD7762 (first compound 0.2 µM) it was 0.284; with Vandetanib + AZD7762 (first compound 0.6325 µM), 0.243; in the assay with Vandetanib + AZD7762 (first compound 2 µM), 0.286; in the assay with NVP-TAE684 + Olaparib (first compound 0.2 µM) it was 0.352. Besides, the relative viability with NVP-TAE684 + Olaparib (first compound 0.6325 µM) stood at 0.326; with NVP-TAE684 + Olaparib (first compound 2 µM), 0.288; with CUDC-101 + Decitabine (first compound 0.01 µM) it was 0.335; with CUDC-101 + Decitabine (first compound 0.03162 µM), 0.33; with CUDC-101 + Decitabine (first compound 0.1 µM), 0.339; with CUDC-101 + Decitabine (first compound 0.3162 µM), 0.383. The relative viability with CUDC-101 + Decitabine (first compound 1 µM) turned out to be 0.354.

Regarding NCI-H1703, the relative viability with Vandetanib + AZD7762 (first compound 0.02 µM) stood at 0.129; with Vandetanib + AZD7762 (first compound 0.2 µM), 0.159; with Vandetanib + AZD7762 (first compound 0.6325 µM), 0.132; with Vandetanib + AZD7762 (first compound 2 µM), 0.134; with NVP-TAE684 + Olaparib (first compound 0.2 µM), 0.368; with NVP-TAE684 + Olaparib (first compound 0.6325 µM) it was 0.413. In the assay with NVP-TAE684 + Olaparib (first compound 2 µM), the relative viability was found to be 0.14.

Turning to COR-L 105, the relative viability in the assay with Vandetanib + Luminespib (first compound 0.02 µM) came to 0.643; with Vandetanib + Luminespib (first compound 0.06325 µM) it was 0.694; with Vandetanib + Luminespib (first compound 0.2 µM), 0.275; with Vandetanib + Luminespib (first compound 0.6325 µM), 0.854; with Vandetanib + Luminespib (first compound 2 µM) it was 0.604; in the assay with NVP-TAE684 + Olaparib (first compound 0.2 µM), 0.695. Moreover, the relative viability in the assay with NVP-TAE684 + Olaparib (first compound 0.6325 µM) amounted to 0.595; in the assay with CUDC-101 + Decitabine (first compound 0.01 µM) it was 0.67; in the assay with CUDC-101 + Decitabine (first compound 0.03162 µM), 0.752; with CUDC-101 + Decitabine (first compound 0.1 µM), 0.622; with CUDC-101 + Decitabine (first compound 0.3162 µM) it was 0.723; in the assay with CUDC-101 + Decitabine (first compound 1 µM), 0.351.

Take NCI-H1650: the relative viability stood at 0.198 in the assay with Vandetanib + Luminespib (first compound 0.02 µM); 0.216 with Vandetanib + Luminespib (first compound 0.06325 µM); 0.161 in the assay with Vandetanib + Luminespib (first compound 0.2 µM); 0.21 with Vandetanib + Luminespib (first compound 0.6325 µM); 0.154 with Vandetanib + Luminespib (first compound 2 µM); 0.757 with NVP-TAE684 + Olaparib (first compound 0.2 µM). The relative viability in the assay with NVP-TAE684 + Olaparib (first compound 0.6325 µM) came out at 0.758; with NVP-TAE684 + Olaparib (first compound 2 µM), 0.825; with CUDC-101 + Decitabine (first compound 0.01 µM), 0.351; in the assay with CUDC-101 + Decitabine (first compound 0.03162 µM) it was 0.444; in the assay with CUDC-101 + Decitabine (first compound 0.1 µM), 0.469; in the assay with CUDC-101 + Decitabine (first compound 0.3162 µM) it was 0.387. In addition, the relative viability in the assay with CUDC-101 + Decitabine (first compound 1 µM) came to 0.302.

In the case of NCI-H2009, the relative viability with Vandetanib + Luminespib (first compound 0.02 µM) was determined as 1.04; in the assay with Vandetanib + Luminespib (first compound 0.06325 µM) it was 0.998; with Vandetanib + Luminespib (first compound 0.2 µM), 0.17; with Vandetanib + Luminespib (first compound 0.6325 µM) it was 1.07; in the assay with Vandetanib + Luminespib (first compound 2 µM), 1.03; with NVP-TAE684 + Olaparib (first compound 0.2 µM), 0.657. The relative viability with NVP-TAE684 + Olaparib (first compound 0.6325 µM) is 0.665; with NVP-TAE684 + Olaparib (first compound 2 µM), 0.634; with CUDC-101 + Decitabine (first compound 0.01 µM) it was 0.416; in the assay with CUDC-101 + Decitabine (first compound 0.03162 µM), 0.372; with CUDC-101 + Decitabine (first compound 0.1 µM), 0.415; with CUDC-101 + Decitabine (first compound 0.3162 µM), 0.438. In the assay with CUDC-101 + Decitabine (first compound 1 µM), the relative viability amounted to 0.351.

Take SK-MES-1: the relative viability came to 0.788 with Vandetanib + Luminespib (first compound 0.02 µM); 0.506 with Vandetanib + Luminespib (first compound 0.06325 µM); 0.758 with Vandetanib + Luminespib (first compound 0.2 µM); 0.594 in the assay with Vandetanib + Luminespib (first compound 0.6325 µM); 0.388 in the assay with Vandetanib + Luminespib (first compound 2 µM); 0.794 with NVP-TAE684 + Olaparib (first compound 0.2 µM). Besides, the relative viability is 0.668 in the assay with NVP-TAE684 + Olaparib (first compound 0.6325 µM); 0.405 with NVP-TAE684 + Olaparib (first compound 2 µM); 0.349 in the assay with CUDC-101 + Decitabine (first compound 0.01 µM); 0.466 in the assay with CUDC-101 + Decitabine (first compound 0.03162 µM); 0.332 with CUDC-101 + Decitabine (first compound 0.1 µM); 0.392 with CUDC-101 + Decitabine (first compound 0.3162 µM). In the assay with CUDC-101 + Decitabine (first compound 1 µM), the relative viability came out at 0.261.

Turning to HCC-78, the relative viability came to 0.591 with Vandetanib + AZD7762 (first compound 0.02 µM); 0.669 with Vandetanib + AZD7762 (first compound 0.06325 µM); 0.596 with Vandetanib + AZD7762 (first compound 0.2 µM); 0.645 with Vandetanib + AZD7762 (first compound 0.6325 µM); 0.609 in the assay with Vandetanib + AZD7762 (first compound 2 µM); 0.727 in the assay with NVP-TAE684 + Olaparib (first compound 0.2 µM). In addition, the relative viability with NVP-TAE684 + Olaparib (first compound 0.6325 µM) was 0.859; with NVP-TAE684 + Olaparib (first compound 2 µM) it was 0.406; with CUDC-101 + Decitabine (first compound 0.01 µM), 0.738; with CUDC-101 + Decitabine (first compound 0.03162 µM) it was 0.591; in the assay with CUDC-101 + Decitabine (first compound 0.1 µM), 0.719; with CUDC-101 + Decitabine (first compound 0.3162 µM), 0.624. Also, in the assay with CUDC-101 + Decitabine (first compound 1 µM), the relative viability came out at 0.433.

Source of the values: the supplement of paper PMC10307832.
